Source: US11905294B2, “Imidazo[1,5-a]pyrazine derivatives as PI3Kδ inhibitors” (BEIGENE, LTD., priority 2017, dated 2024)

How the values were obtained:
Assay type in all cases: biochemical
PI3K (p110β/p85α) = PI3K (p110β/p85α) (Homo sapiens, UniProt P42338); experiment: PI3Kβ assay (ADP-Glo Kinase Assay); conditions: read-out: Enzyme activity IC50 PI3Kβ
PI3K (p110δ/p85α) = PI3K (p110δ/p85α) (Homo sapiens, UniProt O00329); experiment: PI3Kδ assay (ADP-Glo Kinase Assay); conditions: recombinant enzyme; IC50 (nM) or max inhibition (%) at 0.5 μM
Chain of PI3K (p110δ/p85α) (O00329 whole entry): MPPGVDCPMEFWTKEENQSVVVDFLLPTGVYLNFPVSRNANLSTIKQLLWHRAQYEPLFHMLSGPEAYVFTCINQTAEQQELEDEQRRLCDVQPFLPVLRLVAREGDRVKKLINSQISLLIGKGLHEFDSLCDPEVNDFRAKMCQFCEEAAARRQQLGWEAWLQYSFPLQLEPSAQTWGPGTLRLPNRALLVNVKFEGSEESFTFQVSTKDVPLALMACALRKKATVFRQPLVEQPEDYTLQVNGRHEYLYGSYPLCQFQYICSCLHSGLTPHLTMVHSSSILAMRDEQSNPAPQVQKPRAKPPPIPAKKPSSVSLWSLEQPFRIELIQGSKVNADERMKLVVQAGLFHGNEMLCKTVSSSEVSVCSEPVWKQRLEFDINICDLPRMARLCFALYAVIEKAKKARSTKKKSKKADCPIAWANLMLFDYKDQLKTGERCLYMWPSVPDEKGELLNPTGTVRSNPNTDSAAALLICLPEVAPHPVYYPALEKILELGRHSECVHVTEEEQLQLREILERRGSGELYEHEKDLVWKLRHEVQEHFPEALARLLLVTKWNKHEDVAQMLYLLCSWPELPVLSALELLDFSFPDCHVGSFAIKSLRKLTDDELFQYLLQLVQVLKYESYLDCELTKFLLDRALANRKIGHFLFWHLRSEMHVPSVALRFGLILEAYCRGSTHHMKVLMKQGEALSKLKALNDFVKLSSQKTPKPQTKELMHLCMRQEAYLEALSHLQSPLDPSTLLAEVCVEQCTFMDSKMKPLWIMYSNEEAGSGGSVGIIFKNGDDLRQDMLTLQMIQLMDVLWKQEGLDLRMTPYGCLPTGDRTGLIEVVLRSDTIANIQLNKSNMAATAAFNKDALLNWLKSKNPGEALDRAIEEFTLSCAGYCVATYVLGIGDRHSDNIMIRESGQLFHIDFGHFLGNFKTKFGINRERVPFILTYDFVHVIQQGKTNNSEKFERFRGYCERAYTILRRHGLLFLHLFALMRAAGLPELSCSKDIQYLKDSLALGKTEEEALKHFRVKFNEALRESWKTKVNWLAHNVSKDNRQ
Chain of PI3K (p110δ/p85α) (P27986 whole entry partner): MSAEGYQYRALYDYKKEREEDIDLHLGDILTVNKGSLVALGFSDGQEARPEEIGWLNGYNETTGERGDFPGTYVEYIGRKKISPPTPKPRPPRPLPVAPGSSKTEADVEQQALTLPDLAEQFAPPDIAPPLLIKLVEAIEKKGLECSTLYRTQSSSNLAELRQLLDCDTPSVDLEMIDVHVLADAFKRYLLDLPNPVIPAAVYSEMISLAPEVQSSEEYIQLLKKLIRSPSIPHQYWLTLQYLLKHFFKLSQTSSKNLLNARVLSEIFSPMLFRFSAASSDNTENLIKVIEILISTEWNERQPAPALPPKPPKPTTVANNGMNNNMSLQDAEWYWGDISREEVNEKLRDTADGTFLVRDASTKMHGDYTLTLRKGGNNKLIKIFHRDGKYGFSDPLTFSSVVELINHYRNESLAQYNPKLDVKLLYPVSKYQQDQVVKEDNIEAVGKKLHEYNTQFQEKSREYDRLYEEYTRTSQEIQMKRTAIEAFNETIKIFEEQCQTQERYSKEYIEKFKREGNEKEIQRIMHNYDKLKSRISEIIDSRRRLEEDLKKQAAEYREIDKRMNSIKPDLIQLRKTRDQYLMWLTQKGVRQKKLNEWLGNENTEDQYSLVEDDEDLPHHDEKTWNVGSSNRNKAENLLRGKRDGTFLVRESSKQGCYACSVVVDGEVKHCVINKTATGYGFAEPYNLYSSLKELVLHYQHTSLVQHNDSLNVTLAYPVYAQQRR
Procedure: Compounds disclosed herein were tested for inhibition of PI3Kδ kinase activity using commercial ADP-Glo™ Kinase Assay (Promega Corporation) and following the manufacture's instruction. Briefly, recombinant PI3K (p110δ/p85α) enzyme, lipid kinase substrate and a serial dilution of compounds disclosed herein were incubated for 0.5 hr at room temperature. ATP was added to initiate the kinase reaction. After incubation for 1 hr at room temperature, ADP-Glo™ reagent was added to terminate the kinase reaction and deplete the remaining ATP. After incubation for 1 hr at room temperature, kinase detection reagent was added to simultaneously convert ADP to ATP and allow the newly synthesized ATP to be measured using a luciferase/luciferin reaction. After incubation for 0.5 hr at room temperature, the luminescence generated was measured on a PHERAstar FS plate reader (BMG LABTECH). The residual enzyme activity in presence of increasing concentrations of compounds was calculated based on the luminescence. The IC50 for each compound was derived from fitting the data to the four-parameter logistic equation by Graphpad Prism software.

PI3K (p110γ) = PI3K (p110γ) (Homo sapiens, UniProt P48736); experiment: PI3Kγ assay (ADP-Glo Kinase Assay); conditions: recombinant enzyme; IC50 (nM) or max inhibition (%) at 0.5 μM
Chain of PI3K (p110γ) (P48736 whole entry): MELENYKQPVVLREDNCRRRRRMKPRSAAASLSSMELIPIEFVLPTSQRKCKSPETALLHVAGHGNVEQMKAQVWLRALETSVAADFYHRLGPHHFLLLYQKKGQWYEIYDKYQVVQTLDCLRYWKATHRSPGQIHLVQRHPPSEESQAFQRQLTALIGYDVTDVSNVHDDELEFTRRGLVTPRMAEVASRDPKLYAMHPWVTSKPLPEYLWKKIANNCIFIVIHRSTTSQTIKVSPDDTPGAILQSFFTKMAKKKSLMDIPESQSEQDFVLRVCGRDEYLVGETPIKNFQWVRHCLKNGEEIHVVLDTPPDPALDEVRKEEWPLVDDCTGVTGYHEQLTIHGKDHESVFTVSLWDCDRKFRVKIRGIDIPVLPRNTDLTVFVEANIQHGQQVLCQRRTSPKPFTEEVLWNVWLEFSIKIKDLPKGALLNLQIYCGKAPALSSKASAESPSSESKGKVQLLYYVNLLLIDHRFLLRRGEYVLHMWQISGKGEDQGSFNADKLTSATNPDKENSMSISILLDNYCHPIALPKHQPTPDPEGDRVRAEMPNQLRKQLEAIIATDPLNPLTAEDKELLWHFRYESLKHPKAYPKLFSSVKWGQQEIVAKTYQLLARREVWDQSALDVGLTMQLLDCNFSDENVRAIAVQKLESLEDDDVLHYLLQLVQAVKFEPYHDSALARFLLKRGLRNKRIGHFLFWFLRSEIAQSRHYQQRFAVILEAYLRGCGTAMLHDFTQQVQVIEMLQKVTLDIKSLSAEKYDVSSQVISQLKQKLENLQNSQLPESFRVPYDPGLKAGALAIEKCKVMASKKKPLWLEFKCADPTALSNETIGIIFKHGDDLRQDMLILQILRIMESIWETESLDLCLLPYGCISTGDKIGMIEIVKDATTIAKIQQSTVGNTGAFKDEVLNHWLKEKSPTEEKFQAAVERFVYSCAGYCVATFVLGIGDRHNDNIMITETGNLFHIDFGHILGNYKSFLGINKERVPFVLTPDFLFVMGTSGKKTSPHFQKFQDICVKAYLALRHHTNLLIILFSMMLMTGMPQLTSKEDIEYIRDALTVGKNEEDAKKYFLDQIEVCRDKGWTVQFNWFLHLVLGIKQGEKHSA

PI3K (p110α/p85α) = PI3K (p110α/p85α) (Homo sapiens, UniProt P42336); experiment: PI3Kα assay (ADP-Glo Kinase Assay); conditions: recombinant enzyme; IC50 (nM) or max inhibition (%) at 0.5 μM
Chain of PI3K (p110α/p85α) (P42336 whole entry): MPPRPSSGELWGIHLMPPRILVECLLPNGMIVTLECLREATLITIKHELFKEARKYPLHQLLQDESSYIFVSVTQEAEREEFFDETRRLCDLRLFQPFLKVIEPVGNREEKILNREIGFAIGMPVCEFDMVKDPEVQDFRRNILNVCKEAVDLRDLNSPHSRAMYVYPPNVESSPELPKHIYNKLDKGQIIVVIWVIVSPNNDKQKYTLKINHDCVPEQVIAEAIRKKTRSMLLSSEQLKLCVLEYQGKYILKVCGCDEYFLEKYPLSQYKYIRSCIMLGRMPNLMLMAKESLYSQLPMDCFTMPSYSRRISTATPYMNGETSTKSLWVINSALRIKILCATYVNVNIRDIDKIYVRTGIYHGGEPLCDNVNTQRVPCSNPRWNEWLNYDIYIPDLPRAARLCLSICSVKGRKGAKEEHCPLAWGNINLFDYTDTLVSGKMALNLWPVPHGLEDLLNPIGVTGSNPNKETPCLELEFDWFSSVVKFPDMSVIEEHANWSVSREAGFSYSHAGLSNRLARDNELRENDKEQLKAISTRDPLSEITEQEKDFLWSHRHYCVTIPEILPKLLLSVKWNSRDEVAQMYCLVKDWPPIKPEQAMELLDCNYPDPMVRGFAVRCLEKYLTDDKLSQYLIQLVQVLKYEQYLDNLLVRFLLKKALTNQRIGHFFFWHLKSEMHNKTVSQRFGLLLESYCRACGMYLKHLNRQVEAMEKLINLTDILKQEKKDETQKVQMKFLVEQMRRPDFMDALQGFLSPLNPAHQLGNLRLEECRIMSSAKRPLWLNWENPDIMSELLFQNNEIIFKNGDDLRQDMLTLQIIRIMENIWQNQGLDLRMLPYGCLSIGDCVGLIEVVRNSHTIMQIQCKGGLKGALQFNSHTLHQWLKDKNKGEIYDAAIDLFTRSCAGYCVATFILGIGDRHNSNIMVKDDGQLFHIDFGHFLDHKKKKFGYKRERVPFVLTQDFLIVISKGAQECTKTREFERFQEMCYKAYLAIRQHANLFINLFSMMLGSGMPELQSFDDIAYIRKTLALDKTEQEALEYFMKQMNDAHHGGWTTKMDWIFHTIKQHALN
Chain of PI3K (p110α/p85α) (P27986 whole entry partner): as the sequence (P27986 whole entry partner) above

Chain of PI3K (p110β/p85α) (P42338 whole entry): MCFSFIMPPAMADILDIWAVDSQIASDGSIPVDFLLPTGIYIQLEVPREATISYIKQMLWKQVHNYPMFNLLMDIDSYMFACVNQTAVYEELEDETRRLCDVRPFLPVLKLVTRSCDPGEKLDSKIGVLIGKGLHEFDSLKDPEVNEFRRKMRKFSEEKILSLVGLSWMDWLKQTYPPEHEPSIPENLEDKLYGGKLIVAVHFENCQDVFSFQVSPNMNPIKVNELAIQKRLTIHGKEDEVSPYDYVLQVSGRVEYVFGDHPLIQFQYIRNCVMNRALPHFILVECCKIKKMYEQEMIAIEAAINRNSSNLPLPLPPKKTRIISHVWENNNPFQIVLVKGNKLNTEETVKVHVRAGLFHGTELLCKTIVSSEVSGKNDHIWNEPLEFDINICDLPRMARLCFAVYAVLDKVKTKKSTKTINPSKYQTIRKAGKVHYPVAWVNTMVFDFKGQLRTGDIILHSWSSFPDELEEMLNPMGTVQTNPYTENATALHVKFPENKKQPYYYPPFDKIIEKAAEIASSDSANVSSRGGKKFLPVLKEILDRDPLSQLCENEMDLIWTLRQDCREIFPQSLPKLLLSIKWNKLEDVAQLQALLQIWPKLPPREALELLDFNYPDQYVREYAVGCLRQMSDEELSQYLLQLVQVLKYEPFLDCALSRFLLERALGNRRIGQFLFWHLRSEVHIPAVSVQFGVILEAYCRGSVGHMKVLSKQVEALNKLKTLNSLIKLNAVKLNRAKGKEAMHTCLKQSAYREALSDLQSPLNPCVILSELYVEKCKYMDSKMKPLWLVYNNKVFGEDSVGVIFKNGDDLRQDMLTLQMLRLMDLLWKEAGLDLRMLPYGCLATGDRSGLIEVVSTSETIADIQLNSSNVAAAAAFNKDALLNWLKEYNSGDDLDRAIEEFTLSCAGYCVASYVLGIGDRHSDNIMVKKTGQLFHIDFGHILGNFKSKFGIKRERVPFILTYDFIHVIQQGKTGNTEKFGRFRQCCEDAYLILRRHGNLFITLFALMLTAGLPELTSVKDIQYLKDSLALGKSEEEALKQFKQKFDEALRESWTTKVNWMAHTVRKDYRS
Chain of PI3K (p110β/p85α) (P27986 whole entry partner): as the sequence (P27986 whole entry partner) above

Row | Compound | IC50 (PI3K (p110β/p85α)) | IC50 (PI3K (p110δ/p85α)) | IC50 (PI3K (p110γ)) | IC50 (PI3K (p110α/p85α))
1 | Cc1nc(C(C)c2cc(Cl)c(F)c(C(=O)NCC3(O)CC3)c2OC(C)C)n2ccnc(N)c12 (stereo not shown) [Compound 10, 3-(1-(8-amino-1-methylimidazo[1,5-a]pyrazin-3-yl)ethyl)-5-chloro-6-fluoro-N-((1-hydroxycyclopropyl)methyl)-2-isopropoxybenzamide] | 22 µM | 3 nM | 9000 nM | 34000 nM
2 | Cc1nc(C(C)c2cc(Cl)c(F)c(C(=O)Nc3ccccc3)c2OC(C)C)n2ccnc(N)c12 (stereo not shown) [Compound 12, 3-(1-(8-amino-1-methylimidazo[1,5-a]pyrazin-3-yl)ethyl)-5-chloro-6-fluoro-2-isopropoxy-N-phenylbenzamide] | > 50 µM | 3.7 nM | 14000 nM | > 50000 nM
3 | CCOCC1(NC(=O)c2c(F)c(Cl)cc([C@H](C)c3nc(C)c4c(N)nccn34)c2OC(C)C)CC1 [Compound 15, (S)-3-(1-(8-amino-1-methylimidazo[1,5-a]pyrazin-3-yl)ethyl)-5-chloro-N-(1-(ethoxymethyl)cyclopropyl)-6-fluoro-2-isopropoxybenzamide] | > 50 µM | 1.8 nM | 6700 nM | 36000 nM
4 | Cc1nc([C@@H](C)c2cc(Cl)c(F)c(C(=O)NCCN(C)C)c2OC(C)C)n2ccnc(N)c12 [Compound 16, (S)-3-(1-(8-amino-1-methylimidazol[1,5-a]pyrazin-3-yl)ethyl)-5-chloro-N-(2-(dimethylamino)ethyl)-6-fluoro-2-isopropoxybenzamide] | 17 µM | 4 nM | 11000 nM | 20000 nM
5 | COC[C@@H]1CCCN1C(=O)c1c(F)c(Cl)cc([C@H](C)c2nc(C)c3c(N)nccn23)c1OC(C)C [Compound 17, (3-((S)-1-(8-amino-1-methylimidazo[1,5-a]pyrazin-3-yl)ethyl)-5-chloro-6-fluoro-2-isopropoxyphenyl)((S)-2-(methoxymethyl)pyrrolidin-1-yl)methanone] | 72 µM | 3.8 nM | 14000 nM | 77000 nM
6 | COC1CCN(C(=O)c2c(F)c(Cl)cc([C@H](C)c3nc(C)c4c(N)nccn34)c2OC(C)C)CC1 [Compound 19, (S)-(3-(1-(8-amino-1-methylimidazo[1,5-a]pyrazin-3-yl)ethyl)-5-chloro-6-fluoro-2-isopropoxyphenyl)(4-methoxypiperidin-1-yl)methanone] | 60 µM | 2 nM | 10000 nM | 33000 nM
7 | Cc1nc([C@@H](C)c2cc(Cl)c(F)c(C(=O)N[C@@H](C)c3ccccc3)c2OC(C)C)n2ccnc(N)c12 [Compound 21, 3-((S)-1-(8-amino-1-methylimidazo[1,5-a]pyrazin-3-yl)ethyl)-5-chloro-6-fluoro-2-isopropoxy-N-((S)-1-phenylethyl)benzamide] | 28 µM | 1.4 nM | 3900 nM | 33000 nM
8 | Cc1nc([C@@H](C)c2cc(Cl)c(F)c(C(=O)NC[C@@H]3CCCO3)c2OC(C)C)n2ccnc(N)c12 [Compound 24, 3-((S)-1-(8-amino-1-methylimidazo[1,5-a]pyrazin-3-yl)ethyl)-5-chloro-6-fluoro-2-isopropoxy-N-(((S)-tetrahydrofuran-2-yl)methyl)benzamide] | 16 µM | 1.6 nM | 5800 nM | 36000 nM
9 | Cc1nc([C@@H](C)c2cc(Cl)c(F)c(C(=O)NCCC3CCOCC3)c2OC(C)C)n2ccnc(N)c12 [Compound 26, (S)-3-(1-(8-amino-1-methylimidazol[1,5-a]pyrazin-3-yl)ethyl)-5-chloro-6-fluoro-2-isopropoxy-N-(2-(tetrahydro-2H-pyran-4-yl)ethyl)benzamide] | 17 µM | 0.86 nM | 6500 nM | 24000 nM
10 | Cc1nc([C@@H](C)c2cc(Cl)c(F)c(C(=O)NC[C@H]3CCCO3)c2OC(C)C)n2ccnc(N)c12 [Compound 31, 3-((S)-1-(8-amino-1-methylimidazo[1,5-a]pyrazin-3-yl)ethyl)-5-chloro-6-fluoro-2-isopropoxy-N-(((R)-tetrahydrofuran-2-yl)methyl)benzamide] | 16 µM | 3.1 nM | 6200 nM | 25000 nM
11 | Cc1nc([C@@H](C)c2cc(Cl)c(F)c(C(=O)NC[C@@H]3CCOC3)c2OC(C)C)n2ccnc(N)c12 [Compound 35, 3-((S)-1-(8-amino-1-methylimidazo[1,5-a]pyrazin-3-yl)ethyl)-5-chloro-6-fluoro-2-isopropoxy-N-4(((S)-tetrahydrofuran-3-yl)methyl)benzamide] | 19 µM | 1.3 nM | 6000 nM | 46000 nM
12 | Cc1nc([C@@H](C)c2cc(Cl)c(F)c(C(=O)N[C@]3(C)C[C@H](O)C3)c2OC(C)C)n2ccnc(N)c12 [Compound 38, 3-((S)-1-(8-amino-1-methylimidazo[1,5-a]pyrazin-3-yl)ethyl)-5-chloro-6-fluoro-2-isopropoxy-N-((1S,3R)-3-hydroxy-1-methylcyclobutyl)benzamide] | 25 µM | 1.4 nM | 3200 nM | 6100 nM

Stronger by IC50 (PI3K (p110β/p85α)), values ahead:

Row | IC50 (PI3K (p110β/p85α)) | IC50 (PI3K (p110δ/p85α)) | IC50 (PI3K (p110γ)) | IC50 (PI3K (p110α/p85α)) | Compound
13 | 14 µM | 0.97 nM | 7700 nM | 17000 nM | Cc1nc([C@@H](C)c2cc(Cl)c(F)c(C(=O)NCC3CCN(C)CC3)c2OC(C)C)n2ccnc(N)c12 [Compound 30, (S)-3-(1-(8-amino-1-methylimidazo[1,5-a]pyrazin-3-yl)ethyl)-5-chloro-6-fluoro-2-isopropoxy-N-((1-methylpiperidin-4-yl)methyl)benzamide]
14 | 13 µM | 1.3 nM | 2200 nM | 9300 nM | Cc1nc([C@@H](C)c2cc(Cl)c(F)c(C(=O)NCc3ccccn3)c2OC(C)C)n2ccnc(N)c12 [Compound 33, (S)-3-(1-(8-amino-1-methylimidazo[1,5-a]pyrazin-3-yl)ethyl)-5-chloro-6-fluoro-2-isopropoxy-N-(pyridin-2-ylmethyl)benzamide]
15 | 13 µM | 2 nM | 460 nM | 9500 nM | COc1ccc([C@@H](C)NC(=O)c2c(F)c(Cl)cc([C@H](C)c3nc(C)c4c(N)nccn34)c2OC(C)C)cc1 [Compound 36, 3-((S)-1-(8-amino-1-methylimidazo[1,5-a]pyrazin-3-yl)ethyl)-5-chloro-6-fluoro-2-isopropoxy-N-((R)-1-(4-methoxyphenyl)ethyl)benzamide]
16 | 12 µM | 2.4 nM | 6500 nM | 19000 nM | Cc1nc([C@@H](C)c2cc(Cl)c(F)c(C(=O)Nc3ccc(F)cc3)c2OC(C)C)n2ccnc(N)c12 [Compound 18, (S)-3-(1-(8-amino-1-methylimidazo[1,5-a]pyrazin-3-yl)ethyl)-5-chloro-6-fluoro-N-(4-fluorophenyl)-2-isopropoxybenzamide]
17 | 11 µM | 1.4 nM | 3200 nM | 36000 nM | Cc1nc([C@@H](C)c2cc(Cl)c(F)c(C(=O)NC[C@H]3CCOC3)c2OC(C)C)n2ccnc(N)c12 [Compound 34, 3-((S)-1-(8-amino-1-methylimidazo[1,5-a]pyrazin-3-yl)ethyl)-5-chloro-6-fluoro-2-isopropoxy-N-(((R)-tetrahydrofuran-3-yl)methyl)benzamide]
18 | 11 µM | 0.56 nM | 2500 nM | 11000 nM | Cc1nc([C@@H](C)c2cc(Cl)c(F)c(C(=O)N[C@H]3CCC[C@@H]3O)c2OC(C)C)n2ccnc(N)c12 [Compound 37, 3-((S)-1-(8-amino-1-methylimidazo[1,5-a]pyrazin-3-yl)ethyl)-5-chloro-6-fluoro-2-isopropoxy-N-((1S,2S)-2-hydroxycyclopentyl)benzamide]
19 | 8.7 µM | 1.9 nM | 6000 nM | 24000 nM | Cc1nc([C@@H](C)c2cc(Cl)c(F)c(C(=O)N[C@H]3CCC[C@H]3O)c2OC(C)C)n2ccnc(N)c12 [Compound 25, 3-((S)-1-(8-amino-1-methylimidazo[1,5-a]pyrazin-3-yl)ethyl)-5-chloro-6-fluoro-N-((1S,2R)-2-hydroxycyclopentyl)-2-isopropoxybenzamide]
20 | 6.8 µM | 1.2 nM | 4800 nM | 24000 nM | CCNC(=O)c1c(F)c(Cl)cc([C@H](C)c2nc(C)c3c(N)nccn23)c1OC(C)C [Compound 28, (S)-3-(1-(8-amino-1-methylimidazo[1,5-a]pyrazin-3-yl)ethyl)-5-chloro-6-fluoro-2-isopropoxy-N-ethyl-benzamide]
21 | 6.2 µM | 2 nM | 7300 nM | 31000 nM | Cc1nc(C(C)c2cc(Cl)c(F)c(C(=O)NC3CC3)c2OC(C)C)n2ccnc(N)c12 (stereo not shown) [Compound 11, 3-(1-(8-amino-1-methylimidazo[1,5-a]pyrazin-3-yl)ethyl)-5-chloro-N-cyclopropyl-6-fluoro-2-isopropoxybenzamide]
22 | 3 µM | 0.93 nM | 3900 nM | 32000 nM | CNC(=O)c1c(F)c(Cl)cc([C@H](C)c2nc(C)c3c(N)nccn23)c1OC(C)C [Compound 27, (S)-3-(1-(8-amino-1-methylimidazo[1,5-a]pyrazin-3-yl)ethyl)-5-chloro-6-fluoro-2-isopropoxy-N-methylbenzamide]
